# Test results taken from patent publication US20250002854A1, “METHODS OF GENERATING POPULATIONS OF TUMOUR-INFILTRATING T CELLS” (LYTIX BIOPHARMA AS, priority 2016, published 2025).
# Square brackets hold non-standard residues; d marks the D form. Ends that are not written are not given here. Dip = N[C@H](C(=O)O)C(c1ccccc1)c1ccccc1
# Tested on: A375 cells
# Assay: Confocal microscopy, internalization of fluorescence-labeled peptide
# Format: cell-based, human
# Experimental: The A375 cell line A375 (ECACC, 88113005) is a human malignant melanoma derived from patient material, and was purchased from Public Health England (PHE Culture Collections, Porton Down, Salisbury, UK). Cells were maintained as monolayer cultures in high glucose […] DMEM supplemented with 10% FBS and 1% L-glutamine, but not as antibiotics (complete media). The cell line was grown in a humidified 5% CO2 atmosphere at 37° C., and was regularly tested for the presence of mycoplasma with MycoAlert (Lonza).
# Fixed cells, fluorescence-labeled peptide—Subconfluential A375 cells were seeded at 8,000 cells/well as above, and transfected on the second day using the Lipofectamine LTX with Plus transfection reagents (Invitrogen) following the manufacturer's protocol. The mitochondria were labeled using the pDsRed2-Mito, and the nucleus was labeled using the GFP-Histon2B plasmid (Imaging Platform, University of Tromsø). A day after transfection, cells were washed twice with serum-free RPMI, and treated at different concentration and incubation periods with LTX-315 Pacific Blue or LTX-328 Pacific Blue. […] Control cells were treated with unlabeled LTX-315 and also with serum-free RPMI only. After incubation, cells were fixed with 4% paraformaldehyde in PBS, and the wells were covered with Prolong Gold antifade (Invitrogen). Cells were further analyzed by use of a Leica TCS SP5 confocal microscope, with a […] objective. Pacific Blue, GFP and Ds Red were excited using UV, with 488 and 561 lasers, and fluorescence channels were sequentially detected using the following band passes: UV: 420-480 nm (with attenuation), 488: 501-550 nm and 561: 576-676 nm.
substance,measurement,setting,value
"KAQ[Dip]QKQAW-NH2 [LTX-328, reference compound]",internalization of peptide,"3 μM, 60 min",not internalized
same,internalization of Pacific Blue-labelled peptide,"A375 cells, 3 μM and 1.5 μM",did not demonstrate any internalization
